Assay results published in PubChem BioAssay (NCI).
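A five-concentration, 48-hour dose response in 96-well plates underlies each endpoint, interpolated linearly between surrounding concentrations. The concentration for full growth arrest is given as TGI.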

What was measured:
Test in all cases: inhibition of tumour cell growth, NCI panel, 48 h
SK-MEL-5 melanoma = tested on: SK-MEL-5 melanoma
CAKI-1 renal = tested on: CAKI-1 renal
HCC-2998 colon = tested on: HCC-2998 colon
SR leukemia = tested on: SR leukemia
NCI-H226 lung = tested on: NCI-H226 lung
HOP-62 NSCLC = tested on: HOP-62 NSCLC
MOLT-4 leukemia = tested on: MOLT-4 leukemia
UACC-257 melanoma = tested on: UACC-257 melanoma
UO-31 renal = tested on: UO-31 renal
TK-10 renal = tested on: TK-10 renal
SF-268 CNS = tested on: SF-268 CNS
OVCAR-3 ovarian = tested on: OVCAR-3 ovarian
ACHN renal = tested on: ACHN renal
786-0 renal = tested on: 786-0 renal
LOX IMVI melanoma = tested on: LOX IMVI melanoma
SF-539 CNS = tested on: SF-539 CNS
K-562 leukemia = tested on: K-562 leukemia
SW-620 colon = tested on: SW-620 colon
SK-MEL-2 melanoma = tested on: SK-MEL-2 melanoma
IGROV1 ovarian = tested on: IGROV1 ovarian
A498 renal = tested on: A498 renal
NCI-H522 lung = tested on: NCI-H522 lung
MALME-3M melanoma = tested on: MALME-3M melanoma
NCI-H460 lung = tested on: NCI-H460 lung
PC-3 prostate = tested on: PC-3 prostate
M14 melanoma = tested on: M14 melanoma
SK-OV-3 ovarian = tested on: SK-OV-3 ovarian
HL-60(TB) leukemia = tested on: HL-60(TB) leukemia
OVCAR-8 ovarian = tested on: OVCAR-8 ovarian
SF-295 CNS = tested on: SF-295 CNS
DU-145 prostate = tested on: DU-145 prostate
MCF7 breast = tested on: MCF7 breast
T-47D breast = tested on: T-47D breast
NCI-H23 lung = tested on: NCI-H23 lung
U251 CNS = tested on: U251 CNS
MDA-MB-231 breast = tested on: MDA-MB-231 breast
RXF 393 renal = tested on: RXF 393 renal
A549 NSCLC = tested on: A549 NSCLC
BT-549 breast = tested on: BT-549 breast
SNB-19 CNS = tested on: SNB-19 CNS
HT29 colon = tested on: HT29 colon
OVCAR-4 ovarian = tested on: OVCAR-4 ovarian
COLO 205 colon = tested on: COLO 205 colon
SNB-75 CNS = tested on: SNB-75 CNS
OVCAR-5 ovarian = tested on: OVCAR-5 ovarian
UACC-62 melanoma = tested on: UACC-62 melanoma
HS 578T breast = tested on: HS 578T breast
HCT-15 colon = tested on: HCT-15 colon
HCT-116 colon = tested on: HCT-116 colon
NCI/ADR-RES ovarian = tested on: NCI/ADR-RES ovarian
EKVX NSCLC = tested on: EKVX NSCLC
SK-MEL-28 melanoma = tested on: SK-MEL-28 melanoma
CCRF-CEM leukemia = tested on: CCRF-CEM leukemia
MDA-N = tested on: MDA-N
RPMI-8226 leukemia = tested on: RPMI-8226 leukemia
HOP-92 NSCLC = tested on: HOP-92 NSCLC
KM12 colon = tested on: KM12 colon
SN12C renal = tested on: SN12C renal
MDA-MB-435 = tested on: MDA-MB-435

Compound: COc1cc(/C=C2\CCC(C)C3=C(c4cc(OC)c(OC)c(OC)c4)C(C#N)=C(N)OC32)cc(OC)c1OC (stereo not drawn)
- TGI (SK-MEL-5 melanoma): 7.24 µM
- TGI (CAKI-1 renal): > 65.2 µM
- TGI (HCC-2998 colon): 32.5 µM
- TGI (SR leukemia): > 37.8 µM
- TGI (NCI-H226 lung): 6.96 µM
- TGI (HOP-62 NSCLC): > 100 µM
- TGI (MOLT-4 leukemia): > 49 µM
- TGI (UACC-257 melanoma): > 65.4 µM
- TGI (UO-31 renal): > 100 µM
- TGI (TK-10 renal): > 100 µM
- TGI (SF-268 CNS): > 100 µM
- TGI (OVCAR-3 ovarian): > 60.1 µM
- TGI (ACHN renal): > 65.6 µM
- TGI (786-0 renal): 8.83 µM
- TGI (LOX IMVI melanoma): 8.99 µM
- TGI (SF-539 CNS): 4.98 µM
- TGI (K-562 leukemia): > 100 µM
- TGI (SW-620 colon): > 100 µM
- TGI (SK-MEL-2 melanoma): 4.46 µM
- TGI (IGROV1 ovarian): > 52.3 µM
- TGI (A498 renal): > 53.4 µM
- TGI (NCI-H522 lung): 7.75 µM
- TGI (MALME-3M melanoma): 9.03 µM
- TGI (NCI-H460 lung): > 100 µM
- TGI (PC-3 prostate): 24.8 µM
- TGI (M14 melanoma): 6.92 µM
- TGI (SK-OV-3 ovarian): > 57.2 µM
- TGI (HL-60(TB) leukemia): > 25 µM
- TGI (OVCAR-8 ovarian): > 73 µM
- TGI (SF-295 CNS): > 40.6 µM
- TGI (DU-145 prostate): > 100 µM
- TGI (MCF7 breast): 7.4 µM
- TGI (T-47D breast): 12.9 µM
- TGI (NCI-H23 lung): > 100 µM
- TGI (U251 CNS): 25.7 µM
- TGI (MDA-MB-231 breast): 10.9 µM
- TGI (RXF 393 renal): 4.36 µM
- TGI (A549 NSCLC): > 100 µM
- TGI (BT-549 breast): > 100 µM
- TGI (SNB-19 CNS): > 100 µM
- TGI (HT29 colon): 5.02 µM
- TGI (OVCAR-4 ovarian): > 59.6 µM
- TGI (COLO 205 colon): 5.48 µM
- TGI (SNB-75 CNS): 9.24 µM
- TGI (OVCAR-5 ovarian): > 64.6 µM
- TGI (UACC-62 melanoma): 23.2 µM
- TGI (HS 578T breast): 14.6 µM
- TGI (HCT-15 colon): > 68.2 µM
- TGI (HCT-116 colon): 11.3 µM
- TGI (NCI/ADR-RES ovarian): 99.2 µM
- TGI (EKVX NSCLC): 47.6 µM
- TGI (SK-MEL-28 melanoma): 13.9 µM
- TGI (CCRF-CEM leukemia): 26.2 µM
- TGI (MDA-N): 21.9 µM
- TGI (RPMI-8226 leukemia): 6.08 µM
- TGI (HOP-92 NSCLC): > 31.3 µM
- TGI (KM12 colon): 36.8 µM
- TGI (SN12C renal): > 60.6 µM
- TGI (MDA-MB-435): 21.6 µM

Compound: Clc1ccc(C2c3ccccc3-c3nc4ccccc4n32)cc1 (stereo not drawn)
- TGI (SK-MEL-5 melanoma): > 100 µM
- TGI (CAKI-1 renal): > 100 µM
- TGI (HCC-2998 colon): > 75.2 µM
- TGI (SR leukemia): > 54.4 µM
- TGI (NCI-H226 lung): > 64.5 µM
- TGI (HOP-62 NSCLC): 62.8 µM
- TGI (MOLT-4 leukemia): > 51.7 µM
- TGI (UACC-257 melanoma): > 100 µM
- TGI (UO-31 renal): > 60.5 µM
- TGI (TK-10 renal): > 100 µM
- TGI (SF-268 CNS): > 63.9 µM
- TGI (OVCAR-3 ovarian): 37.2 µM
- TGI (ACHN renal): > 100 µM
- TGI (786-0 renal): 51 µM
- TGI (LOX IMVI melanoma): 59.2 µM
- TGI (SF-539 CNS): > 95.4 µM
- TGI (K-562 leukemia): > 100 µM
- TGI (SW-620 colon): > 100 µM
- TGI (SK-MEL-2 melanoma): > 65.4 µM
- TGI (IGROV1 ovarian): > 86.1 µM
- TGI (A498 renal): > 79.9 µM
- TGI (NCI-H522 lung): 67.9 µM
- TGI (MALME-3M melanoma): 82.3 µM
- TGI (NCI-H460 lung): > 100 µM
- TGI (PC-3 prostate): > 77.1 µM
- TGI (M14 melanoma): 99 µM
- TGI (SK-OV-3 ovarian): > 39 µM
- TGI (HL-60(TB) leukemia): > 83.3 µM
- TGI (OVCAR-8 ovarian): > 79.5 µM
- TGI (SF-295 CNS): > 36.6 µM
- TGI (DU-145 prostate): > 100 µM
- TGI (MCF7 breast): > 68.1 µM
- TGI (T-47D breast): > 100 µM
- TGI (NCI-H23 lung): > 100 µM
- TGI (U251 CNS): > 100 µM
- TGI (MDA-MB-231 breast): > 100 µM
- TGI (RXF 393 renal): 17.8 µM
- TGI (A549 NSCLC): > 78.7 µM
- TGI (BT-549 breast): > 100 µM
- TGI (SNB-19 CNS): > 64.8 µM
- TGI (HT29 colon): > 88.9 µM
- TGI (OVCAR-4 ovarian): > 73 µM
- TGI (COLO 205 colon): > 100 µM
- TGI (SNB-75 CNS): > 100 µM
- TGI (OVCAR-5 ovarian): > 75 µM
- TGI (UACC-62 melanoma): > 69.4 µM
- TGI (HS 578T breast): > 100 µM
- TGI (HCT-15 colon): > 100 µM
- TGI (HCT-116 colon): > 53.3 µM
- TGI (NCI/ADR-RES ovarian): > 68.2 µM
- TGI (EKVX NSCLC): > 73.9 µM
- TGI (SK-MEL-28 melanoma): > 100 µM
- TGI (CCRF-CEM leukemia): > 100 µM
- TGI (MDA-N): > 100 µM
- TGI (RPMI-8226 leukemia): > 65 µM
- TGI (HOP-92 NSCLC): > 100 µM
- TGI (KM12 colon): > 100 µM
- TGI (SN12C renal): > 100 µM
- TGI (MDA-MB-435): > 100 µM
